Source: patent publication US12516070B2, “Fused ring derivatives and use thereof in pharmacy” (priority 2020, dated 2026)

Key:
[1] = system: A/WSN/33 I38T Mutation (H1N1); assay type: cell-based, influenza virus
[2] = system: A/PR/8/34 I38T Mutation (H1N1); assay type: cell-based, influenza virus

## CN1C(=O)c2c(O)c(=O)ccn2N2[C@H](c3ccccc3Br)c3cc(F)c(F)cc3OCC[C@@H]12 [Compound 18A]
[1]
  EC50: 214 nM
[2]
  EC50: 117 nM
